Experimental data as given in patent US20050233361A1, “PPARdelta assay” (priority 2004, published 2005).

What was measured:
ANGPTL4 gene expression [1] = assay: ANGPTL4 gene expression in C2C12 cells by Affymetrix micro-arrays; format: cell-based; details: C2C12 mouse muscle cells, 20 hours, vs control = 1.00
Method: Cell culture: C2C12 cells (ATCC: CRL1772)
Cells were cultured in DMEM (5 mM glucose) supplemented with 10% heat-inactivated fetal calf serum (FCS). Complete medium was filtered through 0.2 μm pores before use. Differentiation was performed in 6 well dishes by serum depleting the medium (DMEM High Glucose, 2% FCS) when cells reach confluency. Cell cultures were then incubated for 5 days at 37° C. in a 90%-humidified and 95%-air-5%-CO2 sterile atmosphere to allow differentiation.
PPAR Ligands were dissolved in 100% DMSO and added to medium to adjust 0.1% (v/v) DMSO final concentration and cells were incubated with ligands for 20 hours under normal growth conditions. Three replicates were done for each condition.
RNA extraction procedure has been performed with Qiagen QIAschredder and RNeasy kits.
Approximately 1*106 pelleted cells per sample were resuspended in 350 μl guanidine thiocyanate containing RLT. Samples were loaded on a QIAshredder-column and centrifuged at full speed for 2 minutes to homogenize the lysates. After adding 350 μl ethanol to the flow-through for better binding conditions, samples were applied to RNeasy spin. For the first wash step 350 μl RW1 buffer were pipeted into the column. Then 10 μL DNase solution gently mixed with 70 μl RDD buffer were applied onto the column and incubated for 15 minutes at room temperature to remove genomic DNA. […]

ANGPTL4 gene expression [2] = assay: ANGPTL4 gene expression in C2C12 cells by qPCR; format: cell-based; details: C2C12 mouse muscle cells, S12 reference, vs control = 1
Method: The culturing of the C2C12 mouse muscle cells, RNA extraction, cDNA synthesis and purifications were performed as described in Example 1.
RT-PCR was performed with the Quantitech SYBR Green kit from Qiagen according to the manufacturer's manual. Each component were added to 96 well plate: 25 μl master mix, 0.16 μl of each primer (100 μM stock solution), 22.7 μl H2O and 2 μl cDNA.
The program consists of three different steps: initial denaturation of template and heat-activation of the Taq DNA polymerase (95° C., 15 min), cycling (95° C. denaturation, 60° C. primer-template annealing, 72° C. elongation, fluorescence aquisition), and final melting (melting curve 55 to 95° C., measurements in 0.5° C. steps).
The relative quantification is based on the relative expression of the target gene versus a reference gene. […] The cycle number at which threshold fluorescence is reached, is called ct value. […] The relative ct value of a target gene compared to the ct value of an internal reference in the control or untreated sample is expressed as Δct.control=ctreference of control−cttarget of control and in a treated, unknown sample as Δct.sample=ctreference of sample−cttarget of sample.
As internal reference for quantitative studies the ribosomal protein S12 gene expression was used. […] Setting of fluorescence threshold is determined by the light cycler software. The obtained ct values (duplicates for one sample, two samples per condition) were exported into Microsoft Excel and analyzed as described above.

| Compound | ANGPTL4 gene expression fold changes (ANGPTL4 gene expression [1]; 500 nM) [fold] | ANGPTL4 gene expression fold changes (ANGPTL4 gene expression [2]; 500 nM) [fold] | ANGPTL4 gene expression fold changes (ANGPTL4 gene expression [1]; 300 μM) [fold] | ANGPTL4 gene expression fold changes (ANGPTL4 gene expression [2]; 300 μM) [fold] |
| --- | --- | --- | --- | --- |
| Cc1nc(-c2ccc(C(F)(F)F)cc2)sc1C(Sc1ccc(OCC(=O)O)c2ccccc12)C1CCCC1 (racemic) [C, [rac]-(4-{Cyclopentyl-[4-methyl-2-(4-trifluoromethyl-penyl)-thiazol-5-yl]-methylsulfanyl}-naphtalen-1-yloxy}-acetic] | 8.87 | 10.06 | – | – |
| CC(C)(Oc1ccc(C(=O)c2ccc(Cl)cc2)cc1)C(=O)O [A, 2-[4-(4-Chlorobenzoyl)-phenoxy]-2-methylpropanoic acid] | – | – | 1.99 | 2.61 |
| Cc1cc(N(C)Cc2sc(-c3ccc(C(F)(F)F)cc3)nc2C)ccc1OCC(=O)O [D, (2-Methyl-4-{Methyl-[4-methyl-2-(4-trifluoromethyl-phenyl)-thiazol-5-ylmethyl]-amino}-phenoxy)-acetic acid] | – | 13.51 | – | – |
